Our source for the IC50 values is BindingDB's records for doi:10.1002/bip.20588 (University of California Davis, 2006).

*1 amine or outer side, *2 acyl side, *3 side chain or, on linkers, in order; H or OH if unused. Where a SMILES comes first, the peptide text is derived from it. [ ]: non-standard residue; d: D form. The star is where a group is joined. ξ: configuration not given here. Pro(5R-Ph) = O=C(O)[C@@H]1CC[C@H](c2ccccc2)N1; Leu(4,5-dehydro) = C=C(C)C[C@H](N)C(=O)O; X1 = O=C(Cc1ccc(N[*:1])cc1)[*:2]; Aad = N[C@@H](CCCC(=O)O)C(=O)O; Ile(3ξ) = CCC(C)[C@H](N)C(=O)O; NH(2-Me-phenyl) = Cc1ccccc1N*; hLeu = CC(C)CC[C@H](N)C(=O)O; Dpg = CCCC(N)(CCC)C(=O)O; Heptanoyl = CCCCCCC(=O)*; Nle = CCCC[C@H](N)C(=O)O; Dap = NC[C@H](N)C(=O)O; CO = O=C([*:1])[*:2]

The target in the first test is Integrin alpha-4/beta-1 (Homo sapiens, UniProt P05556+P13612, T112H). Description: Jurkat Cell Adhesion Inhibition Assay.
Conditions: not given
The procedure:
Binding affinities (IC50) of the ligands were studied in a Jurkat cell adhesion assay by inhibiting the alpha-4/beta-1 mediated cell adhesion to CS-1 peptides. The 96-well plates were coated with neutravidin, followed by biotinconjugated CS-1 peptides. Jurkat cells with series dilutions of tested ligands in binding buffer were added and allowed to bind for 30 min. Bound cells were recorded using a 96-well plate reader at 570 nm. IC50 values were calculated from inhibition curves resulting from the concentration-dependent inhibition
With `CCCCCCC(=O)NC[C@H](NC(=O)Cc1ccc(NC(=O)Nc2ccccc2C)cc1)C(=O)N[C@@H](CC(=O)O)C(=O)N[C@H](C(=O)N1CCC[C@H]1C(N)=O)C(C)CC` (stereo partly drawn) [(3S)-3-{[(2S,3S)-1-[(2S)-2-carbamoylpyrrolidin-1-yl]-3-methyl-1-oxopentan-2-yl]carbamoyl}-3-[(2S)-3-heptanamido-2-[1-(4-{[(2-methylphenyl)carbamoyl]amino}phenyl)acetamido]propanamido]propanoic acid] ({NH(2-Me-phenyl)-CO}-[X1][Dap](Heptanoyl)D[Ile(3ξ)]P-NH2), the IC50 worked out at 312 nM.

Take `C=C(C)C[C@H](NC(=O)Cc1ccc(NC(=O)Nc2ccccc2C)cc1)C(=O)N[C@@H](CC(=O)O)C(=O)N[C@H](C(=O)N1CCC[C@H]1C(N)=O)C(C)CC` (stereo partly drawn) [(3S)-3-{[(2S,3S)-1-[(2S)-2-carbamoylpyrrolidin-1-yl]-3-methyl-1-oxopentan-2-yl]carbamoyl}-3-[(2S)-4-methyl-2-[1-(4-{[(2-methylphenyl)carbamoyl]amino}phenyl)acetamido]pent-4-enamido]propanoic acid] ({NH(2-Me-phenyl)-CO}-[X1][Leu(4,5-dehydro)]D[Ile(3ξ)]P-NH2): the 50% inhibitory concentration (IC50) amounted to 2.8 nM.

In turn, `CCC(C)[C@H](NC(=O)[C@H](CC(=O)O)NC(=O)[C@H](CC(C)C)NC(=O)Cc1ccc(NC(=O)Nc2ccccc2C)cc1)C(=O)N1CCC[C@H]1C(N)=O` (stereo partly drawn) [(3S)-3-{[(2S,3S)-1-[(2S)-2-carbamoylpyrrolidin-1-yl]-3-methyl-1-oxopentan-2-yl]carbamoyl}-3-[(2S)-4-methyl-2-[1-(4-{[(2-methylphenyl)carbamoyl]amino}phenyl)acetamido]pentanamido]propanoic acid] ({NH(2-Me-phenyl)-CO}-[X1]LD[Ile(3ξ)]P-NH2) registered an IC50 of 1.9 nM.

`CCC(C)[C@H](NC(=O)[C@H](CC(=O)O)NC(=O)[C@H](CCC(C)C)NC(=O)Cc1ccc(NC(=O)Nc2ccccc2C)cc1)C(=O)N1CCC[C@H]1C(N)=O` (stereo partly drawn) [(3S)-3-{[(2S,3S)-1-[(2S)-2-carbamoylpyrrolidin-1-yl]-3-methyl-1-oxopentan-2-yl]carbamoyl}-3-[(2S)-5-methyl-2-[1-(4-{[(2-methylphenyl)carbamoyl]amino}phenyl)acetamido]hexanamido]propanoic acid] ({NH(2-Me-phenyl)-CO}-[X1][hLeu]D[Ile(3ξ)]P-NH2) yielded an IC50 of 3 nM.

In the case of `CCCC(CCC)(NC(=O)Cc1ccc(NC(=O)Nc2ccccc2C)cc1)C(=O)N[C@@H](CC(=O)O)C(=O)N[C@H](C(=O)N1CCC[C@H]1C(N)=O)C(C)CC` (stereo partly drawn) [(3S)-3-{[(2S,3S)-1-[(2S)-2-carbamoylpyrrolidin-1-yl]-3-methyl-1-oxopentan-2-yl]carbamoyl}-3-{2-[1-(4-{[(2-methylphenyl)carbamoyl]amino}phenyl)acetamido]-2-propylpentanamido}propanoic acid] ({NH(2-Me-phenyl)-CO}-[X1][Dpg]D[Ile(3ξ)]P-NH2), the IC50 amounted to 450 nM.

`CCCC[C@H](NC(=O)Cc1ccc(NC(=O)Nc2ccccc2C)cc1)C(=O)N[C@@H](CCCC(=O)O)C(=O)N[C@H](C(=O)N1CCC[C@H]1C(N)=O)C(C)CC` (stereo partly drawn) [(5S)-5-{[(2S,3S)-1-[(2S)-2-carbamoylpyrrolidin-1-yl]-3-methyl-1-oxopentan-2-yl]carbamoyl}-5-[(2S)-2-[1-(4-{[(2-methylphenyl)carbamoyl]amino}phenyl)acetamido]hexanamido]pentanoic acid] ({NH(2-Me-phenyl)-CO}-[X1][Nle][Aad][Ile(3ξ)]P-NH2): half-maximal inhibition (IC50) required 3.4 nM.

The test is the same for the next values; noted with them: pH 7.5; 22 °C.
`CCCC[C@H](NC(=O)Cc1ccc(NC(=O)Nc2ccccc2C)cc1)C(=O)N[C@@H](CC(=O)O)C(=O)N[C@H](C(=O)N1CC(OCc2ccccc2)C[C@H]1C(N)=O)C(C)CC` (stereo partly drawn) [(3S)-3-{[(2S,3S)-1-[(2S)-4-(benzyloxy)-2-carbamoylpyrrolidin-1-yl]-3-methyl-1-oxopentan-2-yl]carbamoyl}-3-[(2S)-2-[1-(4-{[(2-methylphenyl)carbamoyl]amino}phenyl)acetamido]hexanamido]propanoic acid] returned an IC50 of 5.3 nM.

Take `CCCC[C@H](NC(=O)Cc1ccc(NC(=O)Nc2ccccc2C)cc1)C(=O)N[C@@H](CC(=O)O)C(=O)N[C@H](C(=O)N1[C@@H](c2ccccc2)CC[C@H]1C(N)=O)C(C)CC` (stereo partly drawn) [(3S)-3-{[(2S,3S)-1-[(2S,5R)-2-carbamoyl-5-phenylpyrrolidin-1-yl]-3-methyl-1-oxopentan-2-yl]carbamoyl}-3-[(2S)-2-[1-(4-{[(2-methylphenyl)carbamoyl]amino}phenyl)acetamido]hexanamido]propanoic acid] ({NH(2-Me-phenyl)-CO}-[X1][Nle]D[Ile(3ξ)][Pro(5R-Ph)]-NH2): half-maximal inhibition (IC50) was put at 38 nM.

On to `CCCC[C@H](NC(=O)Cc1ccc(NC(=O)Nc2ccccc2C)cc1)C(=O)N[C@@H](CC(=O)O)C(=O)N[C@H](C(=O)N1Cc2ccccc2C[C@@H]1C(N)=O)C(C)CC` (stereo partly drawn) [(3S)-3-{[(2S,3S)-1-[(3R)-3-carbamoyl-1,2,3,4-tetrahydroisoquinolin-2-yl]-3-methyl-1-oxopentan-2-yl]carbamoyl}-3-[(2S)-2-[1-(4-{[(2-methylphenyl)carbamoyl]amino}phenyl)acetamido]hexanamido]propanoic acid], for which half-maximal inhibition (IC50) was put at 3.2 nM.

`CCCC[C@H](NC(=O)Cc1ccc(NC(=O)Nc2ccccc2C)cc1)C(=O)N[C@@H](CC(=O)O)C(=O)N[C@H](C(=O)N1CSC[C@H]1C(N)=O)C(C)CC` (stereo partly drawn) [(3S)-3-{[(2S,3S)-1-[(4R)-4-carbamoyl-1,3-thiazolidin-3-yl]-3-methyl-1-oxopentan-2-yl]carbamoyl}-3-[(2S)-2-[1-(4-{[(2-methylphenyl)carbamoyl]amino}phenyl)acetamido]hexanamido]propanoic acid] had an IC50 of 3.1 nM.

The compound `CCCC[C@H](NC(=O)Cc1ccc(NC(=O)Nc2ccccc2C)cc1)C(=O)N[C@@H](CC(=O)O)C(=O)N[C@H](C(=O)N1CSC[C@@H]1C(N)=O)C(C)CC` (stereo partly drawn) [(3S)-3-{[(2S,3S)-1-[(4S)-4-carbamoyl-1,3-thiazolidin-3-yl]-3-methyl-1-oxopentan-2-yl]carbamoyl}-3-[(2S)-2-[1-(4-{[(2-methylphenyl)carbamoyl]amino}phenyl)acetamido]hexanamido]propanoic acid] had a 50% inhibitory concentration (IC50) of 3.2 nM.

Usually IC50 stands for the concentration that gives 50% inhibition.
